Experimental data reported in US10960078B2 (priority 2013, dated 2021).

What was measured:
MCF-7 cells [1] = format: cell-based, human; conditions: 30 μM, 24 h
Method: The untreated cells were used as control.
MCF-7 cells were seeded in 6-well plates at 5.0×10^5 cells per well in 2 mL of complete DMEM and cultured for 24 h. […] MCF-7 cells without the treatment were used as a control. […] For cell cycle determination, treated cells were collected, washed for twice with ice-cold PBS, fixed with 70% ethanol at 4° C. overnight and treated with Rnase A for 45 min at 37° C., followed by PI staining for 30 min in the dark.

caspase-3 = test: Western blot analysis of caspase-3 expression; format: cell-based, human; conditions: MCF-7 cells, 30 μM, 24 h
Method: The untreated MCF-7 cells were used as a negative control.
MCF-7 cells were seeded in 6-well plates at a density of 5.0×10^5 cells per well in 2 mL of complete DMEM and allowed to attach for 24 h. […] MCF-7 cells untreated were used as a negative control. After treatment for 24 h, the MCF-7 cells were harvested. The cellular proteins were extracted in Laemmli buffer and the protein content in the extracts was quantified using a bicinchoninic acid (BCA) protein assay kit (Pierce, USA). Equal amounts of proteins (30 μg lane^−1) were separated on sodium dodecyl sulfate-polyacrylamide gels (SDS-PAGE) and electrotransferred to 0.22 μm polyvinylidene fluoride (PVDF) membranes. The membranes were then blocked with 5% non-fat dry milk in TBST (Tris buffered saline supplemented with 0.05% Tween-20) and probed with antibodies against β-actin (1:1,000 dilution), caspase-3 (1:1,000 dilution) followed by HRP-conjugated (HRP: horseradish peroxidase) anti-rabbit immunoglobulin-G (IgG, 1:5,000 dilution). β-Actin was used as the loading control. Protein bands were detected using Chemiluminescent HRP Substrate (Themo Scientific, USA) according to the manufacture's protocol and analyzed using the ChemiDoc™ MP Imaging System (Bio-Rad, USA).

MCF-7 tumor [2] = format: in vivo, Balb/c female nude mice; conditions: for tumor inhibitory rate (TIR): from tumor weight versus PBS group, 24 days
Method: Tumor volume and body weight of tumor-bearing mice were monitored every 3 days within 24 days. […] The tumor inhibitory rate (TIR) was calculated from tumor weight.
Study protocols involving animals were approved by the Animal Ethics Committee of Shanghai Jiao Tong University School of Medicine. SD rats (˜200 g) and 72 Balb/c female nude mice (4 weeks of age) were supplied by Chinese Academy of Sciences (Shanghai). The female nude mice were injected subcutaneously in the right flank region with 200 μL of cell suspension containing 4×10^6 MCF-7 cells. The tumors were allowed to grow to ˜200 mm^3 before experimentation.
Each mouse of different group was earmarked and followed individually throughout the whole experiments. The length and width of the tumor and the body weight of mice were measured before every injection by the end of experiment. Tumor volume (V) was calculated using the formula: V (mm^3)=½×length (mm)×width (mm)^2. After 24 days postinjection, mice were sacrificed, and tumors were separated, weighted and photographed. In addition, the tumors were cut into small pieces, fixed in 10% formalin and embedded in paraffin. Then the tissues embedded in paraffin were sectioned for histopathological analysis with H&E staining.

[3] = In vivo biodistribution in MCF-7 tumor-bearing mice; set-up: species or system Balb/c female nude mice; conditions: MCF-7 tumor-bearing nude mice, i.v.; Cb 3.5, Ir 6.7, Ir-Cb nanoparticles 10 mg kg^−1
Method: Furthermore, to examine the amount of Ir-Cb ADDC in the tumors and other organs, the MCF-7 tumor-bearing mice were sacrificed after intravenous injection with different time intervals. The tumor-bearing mice treated with free Cb and Ir were used as controls. […] After injection for 6 h, the content of Ir-Cb ADDC obviously decreases in kidney, spleen and lung, whereas the downward trend in tumor and liver is slower (FIG. 13b). […] After 6 h, the Ir concentration in spleen and lung decreases quickly.
The biodistribution of Cb, Ir and Ir-Cb nanoparticles was analyzed in Balb/c female nude mice bearing MCF-7 tumors. The MCF-7 tumor-bearing mice were intravenously injected via tail vein with Cb, Ir and Ir-Cb nanoparticles at a dose of Cb (3.5 mg kg^−1), Ir (6.7 mg kg^−1) and Ir-Cb nanoparticles (10 mg kg^−1). Mice were sacrificed by cervical vertebra dislocation at 30 min, 1 h and 6 h after drug administration (n=3 at each time point), and the heart, liver, spleen, lung, kidney and tumor were collected. Tissue samples were rinsed in saline, blotted using paper towel, weighed and stored at −80° C. before being homogenized. Cb, Ir and Ir-Cb were extracted from the homogenate using 2 mL of dichloromethane and methanol (4:1, v/v). The organic phases were collected and dried, and the samples were dissolved in acetonitrile for analysis.

[4] = Pharmacokinetic study (blood retention) after i.v. injection; conditions: rats, 8 mg kg^−1, 12 h
Method: The blood samples (0.5 mL) were taken from the eye socket at the 5 min, 15 min, 30 min, 1 h, 2 h, 4 h, 6 h, 8 h, and 12 h time points after injection. The plasma was obtained by centrifugation at 3,000 rpm for 10 min and stored at −20° C. A 200 μL of plasma was treated two times with 250 μL of acetonitrile and methanol mixture (1:1 v/v). The solvent solutions separated by centrifugation were pooled.

MCF-7 cells [5] = test: Cell cycle assay (PI staining, flow cytometry); format: cell-based, human; conditions: 30 μM, 24 h
Method: MCF-7 cells were seeded in 6-well plates at 5.0×10^5 cells per well in 2 mL of complete DMEM and cultured for 24 h. […] MCF-7 cells without the treatment were used as a control. For quantitative measurement of apoptosis, treated cells were harvested and washed twice with ice-cold PBS, stained with Alexa Fluor® 488 annexin V and PI according to the manufacturer's instructions. For cell cycle determination, treated cells were collected, washed for twice with ice-cold PBS, fixed with 70% ethanol at 4° C. overnight and treated with Rnase A for 45 min at 37° C., followed by PI staining for 30 min in the dark. Both cell apoptosis and cycle were analyzed by flow cytometry (BD FACSCalibur, USA), and […] per sample were counted.

MCF-7 cells [6] = test: In vitro cytotoxicity by MTT assay, MCF-7 cells
Method: The cells without any treatment were used as the control.
The cells were seeded into 96-well plates at 1×10^4 cells per well in 200 μL of culture medium. […] The cells without the treatment were used as control. The cells were grown for another 72 h. Then, 20 μL of 5 mg mL^−1 MTT assay stock solution in PBS was added to each well. After the cells were incubated for 4 h, the medium containing unreacted MTT was carefully removed. Then, the obtained blue formazan crystals were dissolved in 200 μL well^−1 DMSO, and the absorbance was measured in a BioTek Synergy H4 hybrid reader at a wavelength of 490 nm. The blank was subtracted to the measured optical density (OD) values, and the cell viability was expressed as % of the values obtained for the untreated control cells.

MCF-7 tumor [7] = test: Immunohistochemical analysis of tumor tissues (H&E, PCNA); format: in vivo, Balb/c female nude mice; conditions: MCF-7 tumors after treatment
Method: 3 days after the last injection, mice were sacrificed and tumor tissues were excised. The tissues were fixed in 10% formalin and embedded in paraffin. The paraffin-embedded 5 μm tumor sections were analyzed by immunohistochemical analysis for PCNA expression. To analyze the PCNA, endogenous peroxidase activity was inhibited by 3% hydrogen peroxide aqueous solution for 10 min, and the sections were heated to boiling in 0.01 M sodium citrate buffer (pH 6.0) for 10 min in the microwave oven for antigen retrieval and repeated boiling process for once. Subsequently, the sections were allowed to cool in the same buffer, rinsed twice with PBS for 5 min and then incubated with PCNA antibody (Boster, China, 1:200) for 30 min at room temperature and then at 4° C. overnight. After washing, sections were incubated with biotinylated secondary antibodies for 20 min at 37° C. Finally, a streptavidin-biotin complex was applied and the immunoreactivity was visualized with diaminobenzidine as a chromogen. The sections were imaged by using Olympus Fluorescence Microscope (Olympus BX61). […]
Each mouse of different group was earmarked and followed individually throughout the whole experiments. The length and width of the tumor and the body weight of mice were measured before every injection by the end of experiment. Tumor volume (V) was calculated using the formula: V (mm^3)=½×length (mm)×width (mm)^2. […]

[8] = In vitro drug release by dialysis in buffered solutions; conditions: pH 5.0, 37° C.
[9] = Self-assembly of Ir-Cb ADDC in water: size and morphology by DLS and TEM; format: physicochemical
Method: The inherent amphiphilicity of the Ir-Cb ADDC provides an opportunity for itself to self-assemble into nanoparticles in water. To determine the size and morphology of the self-assembled nanoparticles, a dimethylsulfoxide (DMSO) solution of the Ir-Cb ADDC was added dropwise into water, followed by dialysis against water to remove DMSO. A stable and bluish solution with the final Ir-Cb conjugate concentration of 0.5 mg mL^−1 was obtained. FIG. 7a gives the dynamic light scattering (DLS) curve of Ir-Cb ADDC aqueous solution with a concentration of 0.5 mg mL^−1, indicating the formation of aggregates with a narrow unimodal distribution and an average hydrodynamic diameter of approximate 88.3 nm. The morphology of the aggregates was observed by transmission electron microscopy (TEM). […] This size is slightly smaller than that measured by DLS due to the shrinkage of nanoparticles in a drying state during TEM sample preparation. […]
^1H and ^13C nuclear magnetic resonance (^1H NMR and ^13C NMR) spectra were recorded using a Varian Mercury Plus 400 MHz spectrometer. Fourier transform infrared (FTIR) spectra were recorded on a Paragon 1,000 instrument by KBr sample holder method. […] All samples were measured at a scattering angle of 90°. […] Ultraviolet-visible (UV-Vis) absorption of the sample solutions was measured at room temperature by using a Thermo Electron-EV300 UV-Vis spectrophotometer. […]

[10] = Critical aggregation concentration (CAC) measurement with pyrene fluorescent probe; format: physicochemical; conditions: in water, pyrene I3/I1
Method: To investigate the self-assembly behavior of Ir-Cb ADDC in water, the critical aggregation concentration (CAC) was measured by using pyrene as a fluorescent probe. I1 and I3 are the emission intensities of the first and third bands in the fluorescence spectrum of pyrene respectively, which are labeled as 1 and 3 in the inset of FIG. 7c. The emission intensity ratio of I3/I1 is very sensitive to the polarity of the medium surrounding pyrene molecules. (Kwon, et al. 1993 Langmuir 9, 945-949.) The higher polarity of the medium, the lower the intensity ratio is. The relationship of the I3/I1 ratio with the Ir-Cb ADDC concentration is present in FIG. 7c. At low Ir-Cb ADDC concentration, the I3/I1 value remains nearly unchanged, indicating the characteristics of pyrene in water environment. With increasing Ir-Cb ADDC concentration, the ratio of I3/I1 starts to increase dramatically and reaches the characteristic level of pyrene in hydrophobic environment at a certain Ir-Cb ADDC concentration. According to the inflexion of the curve, the CAC value of the Ir-Cb ADDC is about 7 μg mL^−1.
To determine the CAC value of the Ir-Cb ADDC, pyrene was used as the fluorescence probe. […] The fluorescence emission spectra of all samples were recorded on a LS-50B luminescence spectrometer (Perkin Elmer Co.) at 335 nm excitation wavelength and 8 nm slit width. The I3/I1 values of all solution were recorded.

MCF-7/ADR cells = test: Accumulation and efflux assay in MCF-7 and MCF-7/ADR cells (flow cytometry); format: cell-based, human; conditions: 30 μM, 1-4 h incubation
Method: The fluorescent intensity was calculated by CellQuest software, and blanked by untreated cells.

SMILES | ratio of apoptosis cells (MCF-7 cells [1]) [%] | caspase-3 protein expression versus untreated control (caspase-3) | tumor volume compared with the PBS group (MCF-7 tumor [2]; after 24 days treatment, i.v. once every 3 days) [%] | tumor inhibitory rate (TIR) (MCF-7 tumor [2]) [%] | tissue distribution [3] | plasma concentration after 12 h relative to Ir-Cb ADDC [4] | percentage of G0/G1 phase (MCF-7 cells [5]) [%] | percentage of G2/M (MCF-7 cells [5]) [%] | percentage of S (MCF-7 cells [5]) [%] | IC50 (MCF-7 cells [6]; Homo sapiens, MCF7, 72 h) [µM] | cytotoxicity compared with free Cb (MCF-7 cells [6]; MCF-7 cells) | anticancer efficiency compared with free Ir and Ir/Cb mixture (MCF-7 cells [6]; MCF-7 cells, concentration higher than the CAC value) | antitumor activity compared with free Ir and Ir/Cb mixture (MCF-7 cells [6]; MCF-7 cells, drug concentration lower than the CAC value) | H&E histology of tumor tissue (MCF-7 tumor [7]) | Ir release / hydrolysis at pH 5.0 [8] | average hydrodynamic diameter (Dh) by DLS ([9]; aqueous solution 0.5 mg mL^−1) [nm] | average size of spherical nanoparticles by TEM ([9]; dried state) [nm] | critical aggregation concentration (CAC) [10] | accumulation in MCF-7/ADR cells compared with that in MCF-7 cells (MCF-7/ADR cells)
O=C(O)CCCc1ccc(N(CCCl)CCCl)cc1 [Cb, chlorambucil] | 18.02 | up-regulated slightly | 91.60±2.09 | 9.3±2.10 | largely accumulates in liver, followed by spleen, lung, heart and kidney | one twenty-fifth | – | – | – | – | – | – | – | – | – | – | – | – | –
CCc1c2c(nc3ccc(OC(=O)N4CCC(N5CCCCC5)CC4)cc13)-c1cc3c(c(=O)n1C2)COC(=O)[C@]3(O)CC [Ir, irinotecan] | – | up-regulated slightly | – | 42.3±6.63 | mainly accumulates in liver, followed by spleen, lung, kidney and heart up to 2 h | – | 34.25 | 27.81 | 37.93 | ~5 | much higher than that of free Cb | – | – | – | – | – | – | – | –
CCc1c2c(nc3ccc(OC(=O)N4CCC(N5CCCCC5)CC4)cc13)-c1cc3c(c(=O)n1C2)COC(=O)[C@@]3(CC)OC(=O)CCCc1ccc(N(CCCl)CCCl)cc1 [Ir-Cb ADDC] | – | – | – | – | accumulate in liver, spleen, kidney, lung and tumor at first 2 h | – | – | – | – | – | – | much better anticancer efficiency than free Ir and Ir/Cb mixture | worse than that of free Ir and Ir/Cb mixture | large necrotic area is observed | hydrolysis of Ir-Cb ADDC is accelerated | ~88.3 | ~75.7 | about 7 μg mL^−1 | about ½
